Drawing on PMC6797236, “Bacillus subtilis PgcA moonlights as a phosphoglucosamine mutase in support of peptidoglycan synthesis” (PLoS Genetics, 2019), this text covers KM for 2 compounds.

Assay type in all cases: biochemical
The target in test [1] is T1, PgcA (Bacillus subtilis, UniProt P18159).
T1 construct: N-terminal 6xHis tag, tag cleavage not mentioned; expressed in E. coli DH5alpha, Ni-NTA purified
T1 sequence (P18159 1-581): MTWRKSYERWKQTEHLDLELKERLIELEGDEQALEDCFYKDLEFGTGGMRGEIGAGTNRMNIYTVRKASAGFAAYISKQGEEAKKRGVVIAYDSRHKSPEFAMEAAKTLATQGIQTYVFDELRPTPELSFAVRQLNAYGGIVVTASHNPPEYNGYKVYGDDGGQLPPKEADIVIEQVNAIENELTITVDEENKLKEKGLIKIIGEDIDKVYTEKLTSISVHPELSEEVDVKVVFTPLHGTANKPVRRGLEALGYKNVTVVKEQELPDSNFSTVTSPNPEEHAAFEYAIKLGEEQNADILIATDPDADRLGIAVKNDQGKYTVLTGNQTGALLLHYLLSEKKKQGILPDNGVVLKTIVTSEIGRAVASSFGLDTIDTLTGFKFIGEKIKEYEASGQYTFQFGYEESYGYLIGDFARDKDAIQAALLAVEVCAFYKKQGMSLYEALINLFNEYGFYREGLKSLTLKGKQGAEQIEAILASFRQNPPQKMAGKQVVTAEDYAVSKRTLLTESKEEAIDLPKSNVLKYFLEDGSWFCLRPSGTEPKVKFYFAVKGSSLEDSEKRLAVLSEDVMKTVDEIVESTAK
Put plainly: LC-MS assay of glucose 6-phosphate formation. The following applies: 5 mM MgCl2, 20 uM glucose-1,6-bisphosphate, 50 mM Tris-HCl pH 8.0; PGM reaction.

For test [2], the target named is T1, PgcA. The test can be described thus: LC-MS assay of glucosamine 6-phosphate formation. The following applies: 5 mM MgCl2, 20 uM glucose-1,6-bisphosphate, 50 mM Tris-HCl pH 8.0; PNGM reaction.
Another test deals with T2, GlmM (Bacillus subtilis, UniProt O34824).
T2 construct: purified protein; tag and expression of GlmM not described separately
T2 sequence (O34824 1-448): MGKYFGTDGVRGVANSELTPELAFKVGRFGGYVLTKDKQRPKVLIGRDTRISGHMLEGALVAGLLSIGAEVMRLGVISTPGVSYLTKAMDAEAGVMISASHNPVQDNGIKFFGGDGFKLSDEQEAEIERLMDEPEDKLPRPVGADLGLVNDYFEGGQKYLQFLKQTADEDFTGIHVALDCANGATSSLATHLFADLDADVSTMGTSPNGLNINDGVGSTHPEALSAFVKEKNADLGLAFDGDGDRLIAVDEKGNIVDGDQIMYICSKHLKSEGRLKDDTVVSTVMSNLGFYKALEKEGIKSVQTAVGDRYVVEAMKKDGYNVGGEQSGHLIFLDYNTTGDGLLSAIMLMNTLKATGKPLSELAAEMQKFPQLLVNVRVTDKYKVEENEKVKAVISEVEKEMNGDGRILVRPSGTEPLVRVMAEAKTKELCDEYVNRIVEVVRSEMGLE
The test can be described thus: LC-MS assay of glucosamine 6-phosphate formation. To be noted: 5 mM MgCl2, 0.7 mM glucose-1,6-bisphosphate, 50 mM Tris-HCl pH 8.0; PNGM reaction.

SMILES strings stand for the structures.

`O=P(O)(O)O[C@H]1O[C@H](CO)[C@@H](O)[C@H](O)[C@H]1O` [Glc-1-P]: on PgcA [1], the KM entry is “Both PgcA and PgcA G47S were equally active in the PGM reaction”. As for `N[C@H]1[C@@H](OP(=O)(O)O)O[C@H](CO)[C@@H](O)[C@@H]1O` [GlcN-1-P], the KM result at PgcA [2] is “using GlcN-1-P as substrate to monitor the PNGM reaction”; at GlmM, “GlmM from B. subtilis, which had an affinity for GlcN-1-P substrate”.
